Experimental findings from patent US20160052898A1, “NOVEL COMPOUNDS” (BAYER PHARMA AKTIENGESELLSCHAFT, priority 2013, published 2016) are described below.

Structures can show the parent of a compound that is named as a salt. Some results are limits rather than exact numbers.

What all share (type): cell-based
For assay [1], the system named is wildtype Wnt pathway. Description: HEK293 Super TopFlash cellular reporter assay, Wnt-3a stimulated (wildtype Wnt pathway). Particulars: Homo sapiens; HEK293 TOP reporter cells, EC50 concentration of recombinant Wnt-3a, 16 hours incubation; read-out: HEK TOP OncoFlash IC50. As to the method: (§1) In order to determine the inhibitory activity of compounds for the WT Wnt signaling pathway, the Super TopFlash vector respectively FOP vector were cotransfected with pcDNA3 into HEK293 and stable transfected HEK293 cells were isolated by antibiotic selection. […] The recombinant human Wnt-3a was thereby used between 2500 and 5 ng/ml in two-fold dilution steps. […] Measurement of luciferase expression was done as described for the constitutive active Wnt assay.
In order to discover and characterize small molecules which inhibit the wildtype Wnt pathway, a cellular reporter assay was employed. The corresponding assay cell was generated by transfection of the mammalian cell line HEK293 (ATCC, #CRL-1573) with the Super TopFlash vector (Morin, Science 275, 1997, 1787-1790; Molenaar et al., Cell 86 (3), 1996, 391-399). The HEK293 cell line is cultivated at 37° C. and 5% CO2 in DMEM (Life Technologies, #41965-039), supplemented with 2 mM glutamine, 20 mM HEPES, 1.4 mM pyruvate, 0.15% Na-bicarbonate and 10% foetal bovine serum (GIBCO, #10270). Stable transfectants were generated by selection with 300 μg/ml Hygromycin.
(§2) In preparation of the assay, the two cell lines were plated 24 hours before beginning the test at 10000 cells per well in a 384 micro titre plate (MTP) in […] growth medium. […] The recombinant human Wnt-3a was thereby applied between 2500 and 5 ng/ml in two-fold dilution steps. Selective inhibitory activity for small molecules on the wildtype Wnt pathway was determined after parallel incubation of both (TOP and FOP) HEK293 reporter cell lines with a compound dilution series from 50 μM to 15 nM in steps of 3.16-fold dilutions in CAFTY buffer (130 mM NaCl, 5 mM KCl, 20 mM HEPES, 1 mM MgCl2, 5 mM NaHCO3, pH 7.4) containing 2 mM Ca^2+ and 0.01% BSA.
(§3) The compounds were thereby serially prediluted in 100% DMSO and thereafter 50 fold into the CAFTY compound dilution buffer (described above).

For assay [2], the system named is constitutive active colorectal cancer cell (CRC) Wnt pathway. Description: HCT116 Super TopFlash cellular reporter assay (constitutive active Wnt pathway). Particulars: HCT116 TOP reporter cells, luciferase expression, 36 hours incubation, 50 μM to 15 nM. In outline: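 HCT116 cells (β-catenin ΔS45) stably carrying Super TopFlash, with a parallel FOP-control line, were plated 24 h ahead. They were exposed 36 h at 37 °C, 5% CO2 to compound from a 50 μM–15 nM, 3.16-fold pre-dilution series in CAFTY buffer (pH 7.4, 2 mM Ca2+, 0.01% BSA). Wnt signalling was read as luciferase luminescence.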
(A reporter such as luciferase makes a cellular process visible.)

The subject of assay [3] is HCT116 FOP control reporter cell line. The assay is described as follows: HCT116 FOP control vector reporter assay (non-functional TCF elements). Particulars: Homo sapiens, HCT-116, 36 h, HCT116 FOP control reporter cells, luciferase expression, 36 hours incubation, 50 μM to 15 nM; read-out: HCT116 FOPFlash IC50. In outline: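 Stable HCT116 line carrying the non-functional FOP luciferase construct, 10000 cells/well plated 24 hrs before. Compounds 50 μM to 15 nM (3.16-fold steps) in CAFTY buffer pH 7.4 with 2 mM Ca2+, 36 hours at 37° C; luciferase luminescence read.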

Assay [4] relates to HEK293 FOP control reporter cell line. Description: HEK293 FOP control vector reporter assay. Particulars: Homo sapiens; HEK293 FOP control reporter cells, EC50 concentration of recombinant Wnt-3a, 16 hours incubation; read-out: HEK FOP IC50. As to the method:
as §1
In a parallel approach, HEK293 cells were cotransfected with the FOP control vector and pcDNA3. The FOP vector is identical to the TOP construct, but it contains instead of functional TCF elements a randomized, non-functional sequence. For this transfection a stable transfected cell line was generated as well, based on selection with Geneticin (1 mg/ml).
as §2, §3

For `COc1ccc(NC(=O)c2ccc(-c3ccccc3)cc2)cc1NC(=O)Cn1cccn1` [Example 27, N-{4-methoxy-3-[(1H-pyrazol-1-ylacetyl)amino]phenyl}biphenyl-4-carboxamide], the IC50 (in general, the point on the concentration scale where inhibition reaches its midpoint) is 700 nM in assay [1]; 1200 nM in assay [2] (Homo sapiens, HCT-116, 36 h); 23000 nM in assay [3]; 9300 nM in assay [4].
In the case of `COc1ccc(C(=O)Nc2ccc(-c3ccccc3)cc2)cc1NC(=O)C1(N2CCN(C)CC2)CC1` [Example 100, N-(biphenyl-4-yl)-4-methoxy-3-({[1-(4-methylpiperazin-1-yl)cyclopropyl]carbonyl}amino)benzamide hydrochloride (1:1)], the IC50 in assay [1] was 90 nM; in assay [2], 24.8 nM; in assay [3], 20800 nM; in assay [4], 19000 nM.
Consider `O=C(CN1CCOCC1)Nc1cc(C(=O)Nc2ccc(-c3ccccc3)cc2)ccc1C(=O)NC1CC1` [Example 107, N^4-(biphenyl-4-yl)-N^1-cyclopropyl-2-[(morpholin-4-ylacetyl)amino]terephthalamide], for which the IC50 in assay [1] is 310 nM; in assay [2] (Homo sapiens, HCT-116, 36 h), 38.5 nM; in assay [3], 21000 nM; in assay [4], 36000 nM.
`CS(=O)(=O)Cc1ccc(C(=O)Nc2ccc(-c3ccccc3)cc2)cc1NC(=O)CN1CCOCC1` [Example 124, N-(biphenyl-4-yl)-4-[(methylsulfonyl)methyl]-3-[(morpholin-4-ylacetyl)amino]benzamide]: the IC50 in assay [1] was 110 nM; in assay [2] (Homo sapiens, HCT-116, 36 h), 34 nM; in assay [3], not below 50000 nM; in assay [4] it was 11000 nM.
On the same counts, the results for `COc1ccc(NC(=O)c2ccc(-c3cccc(Cl)c3)cc2)cc1NC(=O)CN1CCOCC1` [Example 73, 3′-chloro-N-{4-methoxy-3-[(morpholin-4-ylacetyl)amino]phenyl}biphenyl-4-carboxamide] are 1500 nM, 1450 nM, not below 50000 nM and 32000 nM.
`COCCCNC(=O)c1ccc(C(=O)Nc2ccc(-c3ccccc3)cc2)cc1NC(=O)CN1CCOCC1` [Example 108, N^4-(biphenyl-4-yl)-N^1-(3-methoxypropyl)-2-[(morpholin-4-ylacetyl)amino]terephthalamide]: the IC50 was 15.6 nM in assay [1]; 44.5 nM in assay [2] (Homo sapiens, HCT-116, 36 h); 43500 nM in assay [3]; not below 50000 nM in assay [4].
Taken in the same sequence, the figures for `COc1ccc(NC(=O)c2ccc(-c3ccccc3)cc2)cc1NC(=O)[C@H](C)N1CC2CCC(C1)O2` [Example 56, N-(4-methoxy-3-{[(2S)-2-(8-oxa-3-azabicyclo[3.2.1]oct-3-yl)propanoyl]amino}phenyl)biphenyl-4-carboxamide] were 4000 nM, 222 nM, not below 50000 nM and not below 50000 nM.
Turning to `CC(C(=O)Nc1cc(NC(=O)c2ccc(-c3ccccc3)cc2)ccc1OC(F)(F)F)N1CCOCC1` (stereo not drawn) [Example 61, N-[3-{[2-(morpholin-4-yl)propanoyl]amino}-4-(trifluoromethoxy)phenyl]biphenyl-4-carboxamide], the IC50 is 140 nM in assay [1]; 130 nM in assay [2] (Homo sapiens, HCT-116, 36 h); not below 50000 nM in assay [3]; not below 50000 nM in assay [4].
Regarding `CCOc1ccc(C(=O)Nc2ccc(-c3ccccc3)cc2)cc1NC(=O)CN1CCOCC1` [Example 26, N-(biphenyl-4-yl)-4-ethoxy-3-[(morpholin-4-ylacetyl)amino]benzamide], the IC50 in assay [1] was 970 nM; in assay [2] (Homo sapiens, HCT-116, 36 h), 63.7 nM; in assay [3], not below 50000 nM; in assay [4], not below 50000 nM.
Regarding `COc1ccc(NC(=O)c2ccc(-c3ccccc3)cc2)cc1NC(=O)CN1CC[C@@H](O)C1` [Example 43, N-[3-({[(3R)-3-hydroxypyrrolidin-1-yl]acetyl}amino)-4-methoxyphenyl]biphenyl-4-carboxamide], the 50% inhibitory concentration (IC50) in assay [1] is 1200 nM; in assay [2] (Homo sapiens, HCT-116, 36 h), 2650 nM; in assay [3], not below 50000 nM; in assay [4], not below 50000 nM.
On to `O=C(Nc1ccc(-c2ccccc2)cc1)c1ccc(OC2CC2)c(NC(=O)C2(N3CCN(C4CC4)CC3)CC2)c1` [Example 115, N-(biphenyl-4-yl)-4-(cyclopropyloxy)-3-({[1-(4-cyclopropylpiperazin-1-yl)cyclopropyl]carbonyl}amino)benzamide], for which the IC50 in assay [1] is 170 nM; in assay [2] (Homo sapiens, HCT-116, 36 h) it was 36.2 nM; in assay [3], not below 50000 nM; in assay [4], not below 50000 nM.
As to `COc1ccc(NC(=O)c2ccc(-c3ccccc3)cc2)cc1NC(=O)CN1CCCOCC1` [Example 36, N-{4-methoxy-3-[(1,4-oxazepan-4-ylacetyl)amino]phenyl}biphenyl-4-carboxamide], the IC50 is 820 nM in assay [1]; 1550 nM in assay [2] (Homo sapiens, HCT-116, 36 h); not below 50000 nM in assay [3]; 9900 nM in assay [4].
With `COc1ccc(NC(=O)c2ccc(-c3ccccc3)cc2)cc1NC(=O)CN1CCOC[C@@H]1C` [Example 48, N-[4-methoxy-3-({[(3S)-3-methylmorpholin-4-yl]acetyl}amino)phenyl]biphenyl-4-carboxamide], the IC50 is 2800 nM in assay [1]; 856 nM in assay [2] (Homo sapiens, HCT-116, 36 h); 12000 nM in assay [3]; not below 50000 nM in assay [4].
Taken in the same sequence, the figures for `C[C@H](C(=O)Nc1cc(C(=O)Nc2ccc(-c3ccccc3)cc2)ccc1C(F)(F)F)N1CCOCC1` [Example 16, N-(biphenyl-4-yl)-3-{[(2R)-2-(morpholin-4-yl)propanoyl]amino}-4-(trifluoromethyl)benzamide] were 26 nM, 17.9 nM, not below 50000 nM and 7900 nM.
For `O=C(CN1CCOCC1)Nc1cc(C(=O)Nc2ccc(-c3ccccc3)cc2)ccc1-c1ccco1` [Example 20, N-(biphenyl-4-yl)-4-(2-furyl)-3-[(morpholin-4-ylacetyl)amino]benzamide], the IC50 in assay [1] was 120 nM; in assay [2] (Homo sapiens, HCT-116, 36 h) it was 62.5 nM; in assay [3], not below 50000 nM; in assay [4], not below 50000 nM.
`CNC(=O)c1ccc(C(=O)Nc2ccc(-c3ccccc3)cc2)cc1NC(=O)CN1CCOCC1` [Example 22, N^4-(biphenyl-4-yl)-N^1-methyl-2-[(morpholin-4-ylacetyl)amino]terephthalamide]: the IC50 was 77 nM in assay [1]; 55.2 nM in assay [2] (Homo sapiens, HCT-116, 36 h); not below 50000 nM in assay [3]; not below 50000 nM in assay [4].
`COc1ccc(NC(=O)c2ccc(-c3ccccc3)cc2)cc1NC(=O)CN1CCN(C2CC2)CC1` [Example 35, N-(3-{[(4-cyclopropylpiperazin-1-yl)acetyl]amino}-4-methoxyphenyl)biphenyl-4-carboxamide]: the IC50 is 920 nM in assay [1]; 1180 nM in assay [2] (Homo sapiens, HCT-116, 36 h); not below 50000 nM in assay [3]; 29000 nM in assay [4].
For `COc1ccc(NC(=O)c2ccc(-c3ccccc3)cc2)cc1NC(=O)CN1CCOC(C)(C)C1` [Example 41, N-(3-{[(2,2-dimethylmorpholin-4-yl)acetyl]amino}-4-methoxyphenyl)biphenyl-4-carboxamide], the IC50 in assay [1] was 710 nM; in assay [2] (Homo sapiens, HCT-116, 36 h), 2400 nM; in assay [3], not below 50000 nM; in assay [4] it was not below 50000 nM.
